target: T1, SimG AT domain (LD-AT) (Tolypocladium inflatum, UniProt Z9QNP6F7M4); experiment: intact protein MS, acyl-enzyme formation; type: biochemical; details: covalent; active site Ser706
T1 construct: excised AT domain with flanking linker domain (LD), active-site Ser706; recombinant; borders only in ESI
T1 sequence (Z9QNP6F7M4 1-440): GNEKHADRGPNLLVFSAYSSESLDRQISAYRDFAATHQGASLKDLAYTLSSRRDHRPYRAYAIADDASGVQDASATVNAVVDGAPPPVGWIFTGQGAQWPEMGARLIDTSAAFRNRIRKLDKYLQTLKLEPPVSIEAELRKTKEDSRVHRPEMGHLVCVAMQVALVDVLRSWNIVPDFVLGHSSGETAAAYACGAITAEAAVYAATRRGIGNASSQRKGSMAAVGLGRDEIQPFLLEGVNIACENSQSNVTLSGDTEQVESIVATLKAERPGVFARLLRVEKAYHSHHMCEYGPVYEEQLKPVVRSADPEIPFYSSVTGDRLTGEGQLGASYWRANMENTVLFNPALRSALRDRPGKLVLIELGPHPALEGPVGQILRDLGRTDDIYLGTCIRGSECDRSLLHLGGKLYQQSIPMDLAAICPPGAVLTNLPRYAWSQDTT

SMILES | % acylation of AT domain
CCCCCC(=O)SCCNC(=O)CCNC(=O)[C@H](O)C(C)(C)COP(=O)(O)OP(=O)(O)OC[C@H]1O[C@@H](n2cnc3c(N)ncnc32)[C@H](O)[C@@H]1OP(=O)(O)O [hexanoyl-CoA] | good levels of AT transacylation were observed for C3–C10 substrates
CC(C(=O)O)C(=O)SCCNC(=O)CCNC(=O)[C@H](O)C(C)(C)COP(=O)(O)OP(=O)(O)OC[C@H]1O[C@@H](n2cnc3c(N)ncnc32)[C@H](O)[C@@H]1OP(=O)(O)O (some centres unmarked) [methylmalonyl-CoA] | methylmalonyl-CoA was able to acylate the AT domain
CCCC(=O)SCCNC(=O)CCNC(=O)[C@H](O)C(C)(C)COP(=O)(O)OP(=O)(O)OC[C@H]1O[C@@H](n2cnc3c(N)ncnc32)[C@H](O)[C@@H]1OP(=O)(O)O [butyryl-CoA] | good levels of AT transacylation were observed for C3–C10 substrates
CCCCCCCCCC(=O)SCCNC(=O)CCNC(=O)[C@H](O)C(C)(C)COP(=O)(O)OP(=O)(O)OC[C@H]1O[C@@H](n2cnc3c(N)ncnc32)[C@H](O)[C@@H]1OP(=O)(O)O [decanoyl-CoA] | good levels of AT transacylation were observed for C3–C10 substrates
CCC(=O)SCCNC(=O)CCNC(=O)[C@H](O)C(C)(C)COP(=O)(O)OP(=O)(O)OC[C@H]1O[C@@H](n2cnc3c(N)ncnc32)[C@H](O)[C@@H]1OP(=O)(O)O [propionyl-CoA] | good levels of AT transacylation were observed for C3–C10 substrates
CCCCCCCC(=O)SCCNC(=O)CCNC(=O)[C@H](O)C(C)(C)COP(=O)(O)OP(=O)(O)OC[C@H]1O[C@@H](n2cnc3c(N)ncnc32)[C@H](O)[C@@H]1OP(=O)(O)O [octanoyl-CoA] | good levels of AT transacylation were observed for C3–C10 substrates

target: T1, SimG AT domain (LD-AT); experiment: intact protein MS, acyl-enzyme formation; type: biochemical; details: covalent; active site Ser706; excess acyl-CoA; no ACP

% loading of AT domain [%] | SMILES
35.3 ± 0.9 | CC(=O)SCCNC(=O)CCNC(=O)[C@H](O)C(C)(C)COP(=O)(O)OP(=O)(O)OC[C@H]1O[C@@H](n2cnc3c(N)ncnc32)[C@H](O)[C@@H]1OP(=O)(O)O [acetyl-CoA]
64.5 ± 1.4 | CC(C)(COP(=O)(O)OP(=O)(O)OC[C@H]1O[C@@H](n2cnc3c(N)ncnc32)[C@H](O)[C@@H]1OP(=O)(O)O)[C@@H](O)C(=O)NCCC(=O)NCCSC(=O)CC(=O)O [malonyl-CoA]
